Test results reported in patent publication US20030165919A1, “Method for the analysis of exogenic and endogenic cell activiation based on measuring the aggregation of receptors” (priority 2000, published 2003).

How the values were obtained:
CD11b and CD14 = biological target: T1, CD11b and CD14 (Homo sapiens, UniProt P08571); assay: FRET flow cytometry: co-assembly of CD11b and CD14 on monocytes; format: cell-based; conditions: for co-assembly of CD11b and CD14 (energy transfer between monoclonal antibodies): human monocytes in whole blood, stimulation with the substance alone, 37° C. 15 minutes
T1 construct: endogenous in cells; host or cells: human monocytes in heparinised whole blood (healthy donors and patients)
T1 sequence (P08571 20-345 limits assumed): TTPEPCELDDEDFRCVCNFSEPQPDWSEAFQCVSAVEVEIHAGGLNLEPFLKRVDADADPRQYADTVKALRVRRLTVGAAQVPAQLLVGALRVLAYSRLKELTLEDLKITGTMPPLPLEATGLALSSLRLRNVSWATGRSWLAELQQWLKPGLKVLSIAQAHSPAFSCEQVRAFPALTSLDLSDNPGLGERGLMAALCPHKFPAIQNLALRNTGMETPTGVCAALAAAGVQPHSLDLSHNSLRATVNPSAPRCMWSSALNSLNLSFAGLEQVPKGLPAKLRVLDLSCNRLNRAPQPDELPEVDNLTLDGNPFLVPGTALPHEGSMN
Procedure: (§1) Aliquots […] of whole blood were incubated with the following stimulatory compounds at 37° C. for 15 minutes: LPS of Salmonella minnesota (0.1-10 nM, Mw 10 kDa), ceramide (primarily stearic acid and nervonic acid) and sulfogalactosyl ceramide (SG-cer, […]), both of which tested LPS free in the LAL assay (Cer, 1 nM-5.5 mM), lysophosphatidyl choline (lyso-PC, 10 mM), phorbol-12-myristate-13-acetate (PMA, 1 mM), N-formyl-L-methionyl-L-leucyl-L-phenyl alamine (fMLP, 1 mM), PE, PC, PI and PS liposomes (10 mm) which had been prepared as described above. All reagents were obtained from Sigma. In addition, the cells were stimulated with HPS70 (7 nM), dHSP70 (7 nM) and SG-cer+dHSP70 (40 nM+7 nM). After incubation, the cells were washed with cold PBS containing 0.1% of NaN3. The synthetic LPS antagonist lipid IVa (“compound-406”, 1-400 ng/ml) and lipid A derived from E. coli (1-100 ng/ml) were made available by courtesy of Dr. S. Kusumoto. The cells were pre-incubated with the LPS antagonist at 37° C. for 15 minutes and then stimulated with LPS at the same temperature (without washing).
Whole blood cells which had been stimulated or washed ex vivo […] were incubated on ice for 15 minutes with saturation concentrations of monoclonal fluorochrom-conjugated or biotinylated antibodies. The monoclonal antibodies CD11a (clone 25.3.1), CD16a (clone 3G8). CD18 (clone 7E4), CD14 (clone RMO52), CD33 (clone My9-RD1). CD81 (clone Js64) were obtained as R-phyco-erythrine (R-PE) conjugates and CD25 (clone B1.49.9) in biotinylated form from Coulter/Immunotech (Krefeld, Germany). CD11b (clone d12), CD11c (clone S-HCL-3), CD36 (clone CB38), CD47 (clone B6H12), CD81 (clone JS-81) and (Cd55 (clone IA10) in biotinylated form and Streptavidin-R-PE were purchased from Becton/Dickinson/Pharningen (Heidelberg, Germany) CD18 (clone IB4) in biontinylated form and CD40 (clone EA-5) as R-PE conjugate were obtained from Alexis (Grünberg, Germany) and CD14 (clones ×8 and Uchml) and CD3 (clone Cris-7) in biotinylated form and Streptavidin-Cy5 (Sa-Cy5) from Dianova (Hamburg, Germany), CD32 (clone C1KM5) and CD64 (clone 10.1) were obtained as R-PE conjugates from Caltag (Burlingame, U.S.A.) and CD91 (clone 8G1) in biotinylated form from Proen (Heidelberg, Germany). A monoclonal anti-TLRA antibody (clone HTA125) was kindly provided by Dr. Kensuke. Since no energy transfer between the antibodies directed against the CD14/CD11a and CD14/CD11c pairs was detectable either on resting or on stimulated cells, these antibody combinations were not characterised further.
Lysis of erythrocytes and washing were carried out as described (Rothe et al., Thromb. Vasc. Biol. 16 (1996), 1437-1447). After the last washing step, the samples were divided and part of each sample incubated with a saturating amount of SA-Cy5 on ice for 15 minutes and washed before measuring.
For energy transfer experiments, […] aliquots of whole blood were treated with cholesterol/methyl cyclodextrine (C/C) (100 mg/ml/4.6 mg/ml) or 2-hydroxypropyl-β-cyclodextrine (0.15 mg/ml) at 37° C. for 30 minutes and then stimulated further with LPS (4 nM) or ceramide (40 nM) as described above. The energy transfer between CD14 and CD11b was measured.
A “FACSCalibur” flow cytometer (Becton Dickinson) equipped with an air-cooled 15 mW argon laser (excitation wavelength 488 nm), a diode laser (excitation wavelength […]) and standard filters [channel 1 (FITC): 530/30 nm band pass filter; channel 2 (R-PE being used as donor dye); 585/47 nm band pass filter; channel 3 (PerCP): pass having a length of >670 nm; and channel 4 (Cy5being used as recipient dye): 661/16 nm bad pass filter] was used. The Cellquest software (Becton Dickinson) was used for the measurements. […] Measurement was conducted without compensation. 50,000 leukocytes were required in the “list” modus, forward scattering (FSC) being used as a trigger signal. […]

[1] = biological target: T2, receptor cluster comprising CD14 (Homo sapiens, UniProt P08571); assay: FRET with a series of antibody pairs: receptor cluster comprising CD14 on monocytes; format: cell-based; conditions: stimulation of the cells as control
T2 construct: endogenous in cells; host or cells: human monocytes in whole blood
T2 sequence (P08571 20-345 limits assumed): T1 sequence (P08571 20-345 limits assumed)
Procedure: as §1
Whole blood cells which had been stimulated or washed ex vivo […] were incubated on ice for 15 minutes with saturation concentrations of monoclonal fluorochrom-conjugated or biotinylated antibodies. The monoclonal antibodies CD11a (clone 25.3.1), CD16a (clone 3G8). […]

lipid A
co-assembly of CD11b and CD14 (energy transfer between monoclonal antibodies) (CD11b and CD14): induced the co-assembly of CD11b and CD14

CCCCCCCCCCC[C@@H](O)CC(=O)N[C@H]1[C@H](OC[C@H]2O[C@H](OP(=O)(O)O)[C@H](NC(=O)C[C@H](O)CCCCCCCCCCC)[C@@H](OC(=O)C[C@H](O)CCCCCCCCCCC)[C@@H]2O)O[C@H](CO)[C@@H](OP(=O)(O)O)[C@@H]1OC(=O)C[C@H](O)CCCCCCCCCCC [compound-406]
effect on LPS-induced co-association between CD14 and CD11b (CD11b and CD14; antagonist given in vitro 15 minutes before stimulation, LPS 4 nM + c-406 400 ng/ml): reduced the LPS- or ceramide-induced co-association between CD14 and CD11b significantly
effect on ceramide-induced co-association between CD14 and CD11b (CD11b and CD14; antagonist given in vitro 15 minutes before stimulation, ceramide 10 nM + c-406 100 ng/ml): reduced the LPS- or ceramide-induced co-association between CD14 and CD11b significantly
co-assembly of CD11b and CD14 (energy transfer between monoclonal antibodies) (CD11b and CD14): did not induce co-assembly of the receptors CD14 and CD11b

phosphatidyl ethanol amine [PE]
co-assembly of CD11b and CD14 (energy transfer between monoclonal antibodies) (CD11b and CD14): induced co-assembly between CD11b and CD14

phosphatidyl choline [PC]
co-assembly of CD11b and CD14 (energy transfer between monoclonal antibodies) (CD11b and CD14): Only lipoteichoic acid, PE and PI induced co-assembly

phosphatidyl inositol [PI]
co-assembly of CD11b and CD14 (energy transfer between monoclonal antibodies) (CD11b and CD14): induced co-assembly between CD11b and CD14

CSCC[C@H](NC=O)C(=O)N[C@@H](CC(C)C)C(=O)N[C@@H](Cc1ccccc1)C(=O)O [fMLP, N-formyl-L-methionyl-L-leucyl-L-phenyl alamine]
co-assembly of CD11b and CD14 (energy transfer between monoclonal antibodies) (CD11b and CD14): neither fMLP or PMA showed any effect
energy transfer between any of the antibody pairs [1]: did not result in any significant energy transfer
